What all share (type): cell-based, influenza virus
Assay [1] deals with Influenza Type A H9N2 (avian).
The subject of assay [2] is Influenza Type A H1N1 (PR8).
Assay [3] has as its system Influenza Type A H3N2 (swine).
The subject of another assay is Influenza Type B.

The values below come from US20220089631A1, “COMPOUND COMPRISING MULTIVALENT SIALYLOLIGO[…], AND COMPOSITION FOR PREVENTING OR TREATING VIRAL INFECTION DISEASES, CONTAINING SAME AS ACTIVE INGREDIENT” (priority 2018, published 2022).

Some results are limits rather than exact numbers.

As for `CC(=O)N[C@H]1[C@H]([C@H](O)[C@H](O)CO)O[C@@](O[C@H]2[C@@H](O)[C@@H](CO)O[C@@H](O[C@H]3[C@H](O)[C@@H](O)C(O)O[C@@H]3CO)[C@@H]2O)(C(=O)O)C[C@@H]1O` (stereo partly drawn) [compound 1, 3′-sialyl lactose], the Hemagglutination inhibition concentration in assay [1] came out at 18 mM; in assay [2], 25 mM; in assay [3], 20 mM; with Influenza Type B, 10 mM.
As to `CC(=O)N[C@H]1[C@H]([C@H](O)[C@H](O)CO)O[C@@](OC[C@H]2O[C@@H](O[C@H]3[C@H](O)[C@@H](O)[C@H](O)O[C@@H]3CO)[C@H](O)[C@@H](O)[C@H]2O)(C(=O)O)C[C@@H]1O` [compound 2, 6′-sialyl lactose], the Hemagglutination inhibition concentration is reported as more than 100 mM in assay [1], 12.5 mM in assay [2], 4.5 mM in assay [3] and 4.5 mM with Influenza Type B.
As for `CC(=O)NC1C(O)CC(OCC2CC(O)C(O)C(OC3C(CO)OC(OCCCCCCNC(=O)CCC(=O)OC4OC(COC(=O)CCC(=O)NCCCCCCOC5OC(O)C(OC6OC(COC7(C(=O)O)CC(O)C(NC(C)=O)C([C@@H](O)[C@H](O)CO)O7)CC(O)C6O)C(O)C5O)C(OC(=O)CCC(=O)NCCCCCCOC5OC(CO)C(OC6OC(COC7(C(=O)O)CC(O)C(NC(C)=O)C(C(O)[C@H](O)CO)O7)CC(O)C6O)C(O)C5O)C4OC(=O)CCC(=O)NCCCCCCOC4OC(CO)C(OC5OC(COC6(C(=O)O)CC(O)C(NC(C)=O)C([C@@H](O)[C@H](O)CO)O6)C(O)C(O)C5O)C(O)C4O)C(O)C3O)O2)(C(=O)O)OC1C(O)[C@H](O)CO` (stereo partly drawn) [Compound 4], the Hemagglutination inhibition concentration was 2.0 mM in assay [1], 0.45 mM in assay [2], 0.85 mM in assay [3] and 0.15 mM in the assay on Influenza Type B.
